For test [1], the target named is T1, beta-tryptase (uniprot P20231) (Homo sapiens, UniProt P20231).
T1 construct: made in house; host or cells: Pichia pastoris
The test is described as follows: Tryptase enzyme activity assay. Particulars: 10 µM, n=1. The test is classed as biochemical. The procedure: Tryptase Enzyme Activity Assay. The tryptase assay was carried out using beta-tryptase (uniprot P20231) produced in Pichia pastoris and using Tos-Gly-Pro-Lys-pNA as substrate (25 mM stock in ethanol) in 100 mM Tris pH 8.0, 100 mM NaCl, 10% glycerol, 0.5 mg mL-1 BSA, 0.1% DDM. Substrate (250 µM) was pre-incubated with test compound (10 µM) in assay buffer (200 ul) in clear bottom 96 well Greiner plates at room temperature. The re action was started by the addition of tryptase to a final concentration of 4.7 nM. Co nversion was recorded in a plate reader by monitoring the increase of absorption at λ = 405 nm over time. Activity was determined by linear fit of initial rate.

Test [2] has as its target T2, hPAR2 (Homo sapiens, UniProt P55085).
T2 sequence (P55085 26-397): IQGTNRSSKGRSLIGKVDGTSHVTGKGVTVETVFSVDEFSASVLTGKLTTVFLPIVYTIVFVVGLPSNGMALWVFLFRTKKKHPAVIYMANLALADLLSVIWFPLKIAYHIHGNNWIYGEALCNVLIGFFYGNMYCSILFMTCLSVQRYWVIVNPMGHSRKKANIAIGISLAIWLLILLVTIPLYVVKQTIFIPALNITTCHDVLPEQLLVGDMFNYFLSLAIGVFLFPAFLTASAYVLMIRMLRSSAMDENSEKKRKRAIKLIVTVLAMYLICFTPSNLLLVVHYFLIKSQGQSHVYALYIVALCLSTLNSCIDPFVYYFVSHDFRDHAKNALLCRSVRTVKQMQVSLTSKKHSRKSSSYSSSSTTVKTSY
Description: Ca^2+ flux assay (FLIPR), inhibition of SLIGRL-NH2 activation in 1321N1-hPAR2 cells. The test is classed as cell-based. To be noted: SLIGRL-NH2, 1321N1-hPAR2 cells; mean ± s.e.m.; read-out: Ca^2+ flux (hPAR2) pIC50 (converted). The protocol: Cells were loaded with Fluo-8 NW calcium dye (AAT Bioquest) for 30 min at 37 °C before compounds in Hank’s balanced salt solution (HBSS, ThermoFisher Scientific) with 20 mM HEPES (ThermoFisher Scientific), 0.1% bovine serum albumin (BSA, Sigma) and 0.5% DMSO were added and simultaneously evaluated for changes in intracellular [Ca^2+] using FLIPR TETRA (Molecular Devices) to detect agonism. For each concentration, the difference between the maximum peak Ca^2+ response and baseline response is reported. […] Antagonism experiments were also carried out on 1321N1-PAR2[WT], 1321N1-PAR2[F154A], and 1321N1-PAR2[G157C] as described. Experiments with trypsin in 1321N1-hPAR2 cells were performed in the presence of 1 µM Vorapaxar (Chemtronica) to remove any interference of PAR1 activity. […] Antagonism experiments for CHO-hPAR2 and HT-29 cells were performed in 96-well plates at 30,000 cells/well. Cells were loaded with Fluo-3 AM calcium dye (Sigma-Aldrich) for 60 min at 37 °C in HBSS with 1% FBS, 0.2% pluronic acid, 20 mM HEPES and 2.5 mM probenecid prior to the addition of antagonist. The antagonist was pre-incubated for 60 min at 37 °C followed by the addition of bovine trypsin (30 nM) at EC80. Intracellular [Ca^2+] flux was measured using FLIPR TETRA (Molecular Devices) and the difference between the maximum peak Ca^2+ response and baseline response is reported.
(§1) Binding data were analysed using the One site – Fit Ki model in GraphPad Prism 8 (GraphPad Software) to determine binding affinity. Pharmacology in vitro potency data was analysed with a 4-parameter logistic fit using the equation y = Bottom + (Top − Bottom)/[…] where y is the response, x is the 10-logarithm of the drug concentration, Bottom is no response and Top is full response in GraphPad Prism 8 or Genedata Screener (Genedata). pEC50 and pIC50 data are presented as mean ± standard error of the mean (s.e.m.) derived from the number of independent experiments stated. Schild slope analysis was calculated using Graphpad Prism 8 Gaddum/Schild EC50 global fitting (shared model parameters between all data sets) competitive model. […] Schild slope quantifies the shifts in agonist response in the presence of antagonist, a Schild slope of 1 indicates the antagonist is competitive and extra-sum-of-squares F-test (p < 0.05) was used to compare the calculated Schild slope against a hypothetical Schild slope of 1. […] The relative activity was calculated using (EmaxEC50’)/(Emax’EC50) with the Hill slope help constant at 1. EC50’ and Emax’ denote the EC50 and Emax in the absence of allosteric modulator, while EC50 and Emax denote those measured in the presence of allosteric modulator. When the Hill slope = 1, the relative activity plot approaches an asymptote corresponding to the estimate of the γ value.

A further test deals with T3, rat PAR2 (Rattus norvegicus, UniProt Q63645).
T3 construct: a rat KNRK cell line with endogenous expression of rat PAR2; host or cells: rat KNRK cells
T3 sequence (Q63645 26-397): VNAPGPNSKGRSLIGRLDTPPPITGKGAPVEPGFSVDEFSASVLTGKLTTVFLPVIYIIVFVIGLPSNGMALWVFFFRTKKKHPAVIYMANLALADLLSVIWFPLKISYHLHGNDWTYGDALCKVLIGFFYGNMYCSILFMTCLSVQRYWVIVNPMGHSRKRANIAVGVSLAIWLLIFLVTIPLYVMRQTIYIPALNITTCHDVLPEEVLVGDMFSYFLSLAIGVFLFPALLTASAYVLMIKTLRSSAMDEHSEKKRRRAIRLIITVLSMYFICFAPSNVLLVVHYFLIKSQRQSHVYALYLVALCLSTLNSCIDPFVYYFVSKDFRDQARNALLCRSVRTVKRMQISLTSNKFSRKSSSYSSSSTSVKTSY
The test is described as follows: Ca^2+ flux assay, inhibition of SLIGRL-NH2 activation in rat KNRK cells. The test is classed as cell-based. Particulars: SLIGRL-NH2, rat PAR2 in KNRK cells; mean ± s.e.m.; read-out: Ca^2+ flux (rPAR2) pIC50 (converted).

Test [3] deals with T2, hPAR2. The test is described as follows: IP1 HTRF assay, inhibition of SLIGRL-NH2 in 1321N1-hPAR2 cells. The test is classed as cell-based. Particulars: SLIGRL-NH2, 1321N1-hPAR2 cells; mean ± s.e.m.; read-out: IP1 (hPAR2) pIC50 (converted). The procedure:
Inhibition of PAR2-induced inositol-1-phosphate (IP1) production was measured in 1321N1-hPAR2 cells using IP-One Gq HTRF assay kit (Cisbio). […] Next, EC80 of SLIGRL-NH2 (70 µM) supplemented with 50 mM LiCl was added and incubated for 60 min at 37 °C. Detection of IP1 production was performed according to the manufacturer’s protocol and HTRF was measured using PHERAstar (BMG LabTech). Data were normalised to [IP1] using a standard curve.
as §1
In general terms: TR-FRET usually uses a lanthanide donor and a delayed reading to cut background.

Test [4] deals with T2, hPAR2. Description: pERK1/2 HTRF assay, inhibition of SLIGRL-NH2 in U2OS-hPAR2 cells. To be noted: SLIGRL-NH2, U2OS-hPAR2; mean ± s.e.m.; read-out: pERK1/2 (hPAR2) pIC50 (converted). The class given is cell-based. The protocol: Phosphorylation of ERK1/2 was measured in U2OS-hPAR2 cells using Phospho-ERK1/2 (Thr202/Tyr204) assay kit (64ERKPEH Cisbio) and the 2 plate manufacturer’s protocol with the following modifications. Cells were seeded in McCoy’s 5A media containing 10% FBS at 15,000 cells per well in 384-well plates and incubated overnight at 37 °C, 5% CO2. Antagonist compounds (30 µM–1 nM) were incubated with the cells for 30 min prior to the addition of agonist SLIGRL-NH2 (10 µM) at EC80 and further incubation for 5 min at 37 °C. The supernatant was removed from the wells and lysis buffer was added to the cells and incubated with shaking at room temperature for 30 min. The cell lysate was transferred into a small-volume 384-well plate containing detection antibodies and incubated for 4 h at room temperature in the dark. Plates were read for HTRF signal on PHERAstar (BMG LabTech). In addition, phosphorylation of ERK1/2 was measured in CHO-hPAR2 using AlphaLISA SureFire Ultra pERK1/2 (Thr202/Tyr204) (Perkin Elmer). Cells were seeded at a density of 2000 cells per well in a 384-well proxiplate and incubated overnight. […] After incubation, cell lysis buffer was added with shaking for 30 min. Antibodies and beads were added and incubated for 4 h at room temperature. AlphaLISA signal was measured using a PHERAstar (BMG LabTech).
as §1

Test [5] deals with T2, hPAR2. The test is described as follows: β-arrestin-2 recruitment assay, inhibition of SLIGRL-NH2 in U2OS-hPAR2 cells. The class given is cell-based. To be noted: SLIGRL-NH2, U2OS-hPAR2; mean ± s.e.m.; read-out: β-arrestin (hPAR2) pIC50 (converted). The protocol:
β‐Arrestin-2 recruitment was measured in U2OS-hPAR2 cells using the DiscoverX assay kit, according to the manufacturer’s instructions. Briefly, cells were seeded in McCoy’s 5A media containing 10% FBS at 4000 cells per well in 384-well plates and incubated overnight at 37 °C, 5% CO2. Antagonist compounds (30 µM–1 nM) were incubated with the cells for 30 min prior to the addition of agonist SLIGRL-NH2 (10 µM) at EC80 and further incubation for 90 min at 37 °C. Working detection solution (12 µl) was then added to each well, incubated at room temperature in the dark for 60 min and the chemiluminescence signal read on the EnVision microplate reader (Perkin Elmer).
as §1
A general note: Activated receptors often draw arrestin, which recruitment assays turn into a signal.

Test [6] deals with T2, hPAR2. The test is described as follows: Ca^2+ flux assay, inhibition of trypsin activation in 1321N1-hPAR2 cells (with 1 µM Vorapaxar). To be noted: 1321N1-hPAR2 cells, 1 µM Vorapaxar. The test is classed as cell-based.

T1 sequence (P20231 31-275): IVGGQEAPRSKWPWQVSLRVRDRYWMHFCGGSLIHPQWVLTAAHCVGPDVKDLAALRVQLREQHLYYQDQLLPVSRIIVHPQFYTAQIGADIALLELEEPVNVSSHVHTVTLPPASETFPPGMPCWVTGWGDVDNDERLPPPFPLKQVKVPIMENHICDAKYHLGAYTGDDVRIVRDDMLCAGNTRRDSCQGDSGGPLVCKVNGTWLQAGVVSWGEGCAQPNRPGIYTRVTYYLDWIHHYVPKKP

With `N=C(N)Nc1ccc(C(=O)Oc2ccc([N+](=O)[O-])cc2)cc1` [4-nitrophenyl-4-guanidinobenzoate, reference compound], the “inhibition of tryptase activity” value in test [1] is recorded as “completely”.
With `C[C@@H](C1CCCCC1)n1c(-c2cc3c(cc2Br)OCO3)nc2cc(C(=O)Nc3ccccc3)ccc21` [AZ8935], the IC50 is 20 nM at hPAR2 [2]; 7.94 nM on rat PAR2; 302 nM on hPAR2 [3]; 1260 nM on hPAR2 [4]; 380 nM at hPAR2 [5]. For the same compound, the “shape of inhibition of trypsin-induced Ca^2+ mobilisation” value on hPAR2 [6] is on record as “biphasic inhibition curves”.
For the compound `C[C@@H](C1CCOCC1)n1c(-c2cc3c(cc2Br)OCO3)nc2cc(C(=O)Nc3ccc(C#N)cc3)ccc21` [AZ7126], the IC50 on hPAR2 [2] is 7.94 nM; on rat PAR2, 5.01 nM; at hPAR2 [3], 79.4 nM; on hPAR2 [4] it was 200 nM; on hPAR2 [5] it was 63.1 nM. The “shape of inhibition of trypsin-induced Ca^2+ mobilisation” value on hPAR2 [6] is listed as “biphasic inhibition curves”.

The record behind these values is article PMC7747594, “Protease-activated receptor-2 ligands reveal orthosteric and allosteric mechanisms of receptor inhibition” (Communications Biology, 2020).
